Assay results from US10711244B2, “Mammalian neural plate border stem cells capable of forming neural tube and neural crest cell lineages including central and peripheral neurons” (Max-Planck-Gesellschaft zur Förderung der Wissenschaften …, priority 2012, dated 2020).

Experiments:
Type in all cases: cell-based, human
NPBSCs [1] = assay: Dorsoventral patterning of NPBSCs by CHIR and PMA (qRT-PCR, immunostaining)
Protocol: Total RNA was isolated from cultured cells using RNeasy columns (Qiagen), according to manufacturer instructions, including an on-column DNase digest. Isolated RNA was reverse-transcribed using M-MLV Reverse Transcriptase (USB) with oligo-[…] primers (Metabion) for 1 h at 42° C. qRT-PCR was performed on an Applied Biosystems 7500 Real-Time PCR system with SYBR green PCR master mix (ABI) and 56 ng of original RNA equivalents per 20 μl PCR reaction. Cycling conditions were 40 cycles of 15 s, 95° C./60 s 60° C. Relative expression levels were calculated using the […] method, normalized to biological reference samples and using GAPDH and ACTB as housekeeping genes. Next, we sought to determine if NPBSCs remain competent for WNT and SHH mediated patterning of neural fate commitment. […] SHH signaling opposes dorsal neural fates and specifies ventral fates (Ulloa and Briscoe, 2007). […] Therefore, we conclude that NPBSCs are receptive to WNT and SHH induced dorsoventral patterning of neural fate specification. […] As such, the upregulation of these markers by NPBSCs could also be because of assuming a neural plate border and/or neural crest identity. To test this possibility, we assessed the responsiveness of the CNS progenitor marker SOX1 to SHH and WNT signaling. […] The inhibition by CHIR is the same that induced MSX1 and PAX3 upregulation.

differentiating hEBs = assay: NPBSC derivation from EBs with CHIR and/or PMA; details: EBs treated with the indicated small molecules; morphology, neural markers
Protocol: For generation of NPBSCs from pluripotent stem cells, colonies were detached from the MEFs three to four days after splitting, using 2 mg/ml collagenase IV (Invitrogen). Colony pieces were collected by sedimentation and resuspended in hESC medium (without FGF2) supplemented with 10 μM SB-431542 (Ascent Scientific), 1 μM dorsomorphin (Tocris) for neural induction, as well as 3 μM CHIR 99021 (Axon Medchem), 0.5 μM PMA (Alexis) and cultured in petri dishes. Medium was replaced on day two by N2B27 supplemented with the same small molecule supplements. N2B27 consisted of DMEM-F12 (Invitrogen)/Neurobasal (Invitrogen) 50:50 with 1:200 N2 supplement (Invitrogen), 1:100 B27 supplement lacking vitamin A (Invitrogen) with 1% Penicillin/Streptomycin/Glutamine (PAA). On day four, SB-431542 and dorsomorphin were withdrawn and 150 μM Ascorbic Acid (AA; Sigma) was added to the medium. […] BD Biosciences) 12 well plates at a density of about ten to fifteen per well in NPBSC expansion medium (N2B27 with CHIR, PMA and AA). For coating, Matrigel was diluted to a final dilution of 1:100 in Knockout DMEM (Invitrogen) prior to coat 500 μl per well of a 12 well plate over night. Coated plates were wrapped with Parafilm and kept in the fridge for up to one month. The first split was performed at a 1:5 to 1:10 ratio on day 2 to 4 after plating. All the remaining splitting ratios were 1:10. […]

NPBSCs [2] = assay: Neural rosette formation by NPBSC colonies cultured with FGF2
Protocol: (§1) For confocal microscopy, cells were plated on Matrigel-coated glass coverslips. Cultures were fixed for 20 minutes with 4% paraformaldehyde (Electron Microscopy Sciences) in PBS (Invitrogen) and washed twice with PBS. Permeabilization and blocking was done in one step using 0.1% Triton X-100 (Sigma Aldrich), 10% fetal calf serum (PAA) and 1% BSA in PBS for 45 minutes. Plates or coverslips were washed once with 0.1% BSA in PBS and the primary antibodies applied overnight at 4° C. in 1% BSA in PBS. The next day, following one washing step with 0.1% BSA in PBS, secondary antibodies were applied for one hour at room temperature in 1% BSA in PBS. Finally, cells were washed three times with 0.1% BSA in PBS-T (0.05% Tween 20), including a Hoechst counterstaining for nuclei in the second washing step. Cells were mounted in Vectashield mounting medium (Vector Labs) and imaged on a Zeiss PALM/Axiovert fluorescence microscope or a Zeiss LSM700 confocal microscope. If necessary, images were merged using ImageJ and Adobe Photoshop.
We tested this by culturing NPBSC colonies in the presence of FGF2, which has previously been reported to induce neural rosette formation by hEBs that have been plated (Zhang et al., 2001). […] For further characterization, we immunostained for ZO-1, which is expressed by neural rosettes but spatially localized to the apical surface (Elkabetz et al., 2008).

NPBSCs [3] = assay: Directed differentiation of NPBSCs into PNS neurons
Protocol: For generation of PNS neurons, NPBSCs two days after splitting were switched to N2B27 with only CHIR for two days. Afterward, 10 ng/ml BMP4 (R&D Systems) was added for eight days. Splitting and maturation was performed as described for the generation of motor neurons. For astrocyte and mesenchymal neural crest differentiation, NPBSCs were cultured with DMEM (PAA) with 10% fetal calf serum (PAA) and 1% Pen/Strep/Glutamin (PAA), beginning two days after splitting. Cultures were split twice at a 1:3 ratio when confluent using trypsin (Invitrogen).
as §1
Total RNA was isolated from cultured cells using RNeasy columns (Qiagen), according to manufacturer instructions, including an on-column DNase digest. […] Relative expression levels were calculated using the 2^−2Δ method, normalized to biological reference samples and using GAPDH and ACTB as housekeeping genes. […]

What does the source list for Cc1cnc(-c2cnc(NCCNc3ccc(C#N)cn3)nc2-c2ccc(Cl)cc2Cl)[nH]1 [CHIR, 6-[[2-[[4-(2,4-dichlorophenyl)-5-(5-methyl-1H-imidazol-2-yl)-2-pyrimidinyl]amino]ethyl]amino]-3-pyridinecarbonitrile]?
SOX1 expression (NPBSCs [1]; 6 days): inhibited; expression of dorsal neural progenitor markers MSX1 and PAX3 (NPBSCs [1]; 6 days culture): upregulated; outcome of NPBSC derivation from EBs (differentiating hEBs): produced many non-neural cells

“FGF2: basic fibroblast growth factor, a member of the fibroblast growth factor family” was tested. Which neural rosette formation (NPBSCs [2]; NPBSC colonies cultured with FGF2 for 2 days) did it give?
The neural rosette formation was “numerous neural rosettes were formed”.

What about the ZO-1 expression localization (NPBSCs [2]; immunostaining after FGF2 treatment) of the same molecule?
The ZO-1 expression localization was “re-oriented to the apical surface of the rosettes”.

B1: BMP4: activator of the BMP signalling pathway (Gene Symbol BMP4), from R&D Systems (protein, UniProt P12644 293-408, looked up)
Bone morphogenetic protein 4: SPKHHSQRARKKNKNCRRHSLYVDFSDVGWNDWIVAPPGYQAFYCHGDCPFPLADHLNSTNHAIVQTLVNSVNSSIPKACCVPTELSAISMLYLDEYDKVVLKNYQEMVVEGCGCR
Which “PERIPHERIN immunostaining of neurons” value (NPBSCs [3]; 8 days BMP4) does the source give for B1 here?
Its value is “majority of the neurons were PERIPHERIN-positive”.

What about the effect on neurogenesis (NPBSCs [3]; 8 days treatment) of the same molecule?
Its effect on neurogenesis is “did not inhibit neurogenesis”.

What about the “PERIPHERIN and BRN3A expression” value (NPBSCs [3]; qRT-PCR, 8 days of treatment) of the same molecule?
The value was “upregulated”.
